The test system of experiment [1] is CD34+ UCB cells. Put plainly: CD34+ UCB cell xenotransplants into NSG mice after 2 hour ex vivo treatment; engraftment at 16 weeks. It is filed as in vivo, human. As for the experimental part:
CD34^+ UCB Cell Xenotransplants into NSG Mice. All NSG studies were carried out in accordance with, and approval of the Institutional Animal Care and Use Committee of Indiana University School of Medicine and the Guide for the Care and Use of Laboratory animals. Female NOD.Cg-Prkdc^scid I12rg^tm1Wj1/Szj (NSG) mice were obtained from the In Vivo Therapeutics Core of the Indiana University Simon Cancer Center. Animals were maintained under pathogen-free conditions and maintained on Irradiated Global 2018 (Uniprim 4,100 ppm; Harlan Laboratories) food pellets with ad libitum access to autoclaved, acidified tap water under a 12-hour light-dark cycle at 22° C. to 24° C. Mice were irradiated 4 hours prior to transplant (3.0 Gy of ^137Cesium γ-ray irradiation in an irradiator (J. L. Shepherd, Glendale, CA) at a dose rate of 88 cGy/min). CD34^+ UCB cells were thawed in 1% human serum albumin in STEMSPAN® media (STEMCELL Technologies) with human SCF 100 ng/ml and allowed to sit for 2 hours. Cells were then counted and plated at 0.5×10^6 cells/mL in STEMSPAN® media with 1% HSA. Cells were plated and treated with the following for 2 hours at 37° C.: 1, 10, or 50 μM (RS)-Baclofen (Tocris); 1, 10, or 50 μM 2-hydroxy-saclofen (Tocris); vehicle control (DMSO). Cells were harvested and immediately washed with PBS by centrifugation at 300×g for 10 minutes. Mice were transplanted with 20,000 cells each in 200 μL PBS (n=7 mice per group). PB and BM were harvested at 16 weeks post-transplant.
Analysis and Multi-Parametric Flow Cytometry Immunostaining of Xenotransplant Mice. For peripheral blood counts, blood was obtained through retro-orbital bleeding and transferred to EDTA-coated tubes. Peripheral blood cell numbers were determined using a Vet Abc Hematological analyzer (Scil Animal Care). For PB, BM, and spleen analysis of the target populations in xenotransplant mice, the cells were collected using a red blood cell lysis assay (eBioscience). The following primary conjugated monoclonal antibodies were used: anti-human CD34 PE (BD Pharmingen), anti-human AC133 APC (Miltenyi Biotec), anti-human CD19 PECy7 (BD Pharmingen), anti-human CD33 PerCP-Cy5.5 (BD Pharmingen), anti-human CD38 FITC (BD Pharmingen), anti-human CD45 APC-fluorescent dye sold under the tradename ALEXA FLUOR® (AF) 750 (Invitrogen), and the fixable amine reactive viability dye, LiveDead (Violet, Invitrogen).
The lysed PB, BM, and spleen cells were incubated with both human and murine Fc blocking reagent (Miltenyi Biotec) for 10 minutes on ice. Briefly, cells were incubated with the titered antibodies listed above for 30 minutes at 4° C., washed twice in PBS with 2% fetal bovine serum, fixed in 1% PFA (Tousimis), and analyzed within 24 hours on a BD Fortessa™ flow cytometer (BD, Franklin Lakes, NJ, USA) equipped with a 405 nm violet laser, 488 nm blue laser, 640 nm red laser, and 561 nm yellow-green laser. Approximately 100,000 events per sample were acquired uncompensated and exported as FCS 3.1 files, and analyzed utilizing FlowJo software, version 9.9.6 (Tree Star, Inc). “Fluorescent minus one” (FMO) gating controls were also used to ensure proper gating of positive events (Estes, et al. (2010) Curr. Prot. Cytometry 9:9.33.331-11; Estes, et al. (2010) Cytometry Part A 77:831-839).
Findings from the mouse model indicated a role for Gabbr1 neuroreceptor in two aspects of hematopoiesis: proliferation of HSPCs and differentiation of B lineage cells. To evaluate functional conservation of Gabbr1 in hematopoiesis, and translational potentials of GABA signaling for HSPCs, CD34^+ UCB cells were exposed for 2 hours in vitro with increasing doses of either baclofen (Bac), a clinically approved GABA agonist (Bowery, et al. (1980) Nature 283(5742):92-94), or 2-hydroxy-saclofen (Sac), a selective antagonist of GABA B receptor (Kerr, et al. (1988) Neurosci. Lett. 92(1):92-96). […]

For experiment [2], the system named is HSPC. As to conditions: literature comparison; cited from earlier work.
The test system of experiment [3] is LSK progenitors. Put plainly: OP9 co-culture B cell differentiation of LSK progenitors treated with Baclofen. It is filed as cell-based, mouse. As for the experimental part: In vitro B Cell Differentiation Assay. LSK progenitors (4,000) from wild-type and Gabbr1^−/− mice were directly sorted onto pre-prepared OP9 stromal cells with 1 mL complete DMEM medium containing 10% FBS, 1 ng/mL IL-7, and 5 ng/mL Flt-3L. Three and six days later, 1 mL complete DMEM medium was added. One week after initial culture, all cells including OP9 cells were mechanically detached and filtered with a […] cell strainer. Cells were passaged onto fresh OP9 stromal cells with complete medium. Medium was changed every three days. At 14 days after initial culture, all cells were detached and stained with CD45.2, CD19, B220 and CD11b antibodies. The numbers of the different hematopoietic cell populations in each well were calculated by multiplying the total cell numbers from each well with the frequencies of each population. To assess the effects of Gabbr1 on myeloid cell differentiation from LSK cells, the DMEM medium containing 10% FBS, 1 ng/ml IL-7, 5 ng/ml Flt-3L, 5 ng/ml IL-6, 6 ng/ml IL-3 was used. Fourteen days after sorted LSK cells were cultured on OP9 cells, numbers of CD11b^+ and Gr-1^+ cells were measured via flow cytometry.
In addition, OP9 co-culture experiments were carried out to differentiate HSPCs in vitro toward B lineages. LSK progenitors (3,000-4,000 cells) were sorted from wild-type or Gabbr1 null mutants. These cells were plated on a stromal OP9 cells and induced to differentiate into B cells by supplementing media (a-MEM 25% HYCLONE™ FBS) with IL-7 (1 ng/mL) and Flt3L (5 ng/mL). […]
To test if OP9 co-cultures would respond to GABBR1 agonist during B cell differentiation, and allow downstream biochemical analysis, the co-cultures were treated with Baclofen. […] Cultures were harvested and analyzed for cell surface marker expression (B220^+ and GABBR1^+) by flow cytometry at day 12.
As part of this self-regulating direct feedback mechanism, it was also determined whether there were any changes in GABBR1 surface expression in B lineages using flow cytometry. […]

Experiment [4] deals with CD34+ UCB progenitors. The experiment can be described thus: Human umbilical cord blood (UCB) colony forming assays. It is filed as cell-based. The protocol: Human Umbilical Cord Blood (UCB) Colony Forming Assays. Colony forming assays were carried out with either CD34^+ UCB progenitors treated as above prior to xenotransplant (i.e., input cells), or from xenotransplant recipient BM after 16 weeks (i.e., output cells). Input cells were plated at a density of 1×10^3 cells/dish. Output cells were plated at a density of 2×10^5 cells/dish. Cells were mixed with METHOCULT® M3434 culture medium (STEMCELL Technologies) and plated into each of three 35-mm gridded dishes. Dishes were incubated at 37° C. for 12 days and colonies were enumerated under a bright light microscope. A clonogenic colony contained at least 50 cells or greater. Findings from the mouse model indicated a role for Gabbr1 neuroreceptor in two aspects of hematopoiesis: proliferation of HSPCs and differentiation of B lineage cells. To evaluate functional conservation of Gabbr1 in hematopoiesis, and translational potentials of GABA signaling for HSPCs, CD34^+ UCB cells were exposed for 2 hours in vitro with increasing doses of either baclofen (Bac), a clinically approved GABA agonist (Bowery, et al. (1980) Nature 283(5742):92-94), or 2-hydroxy-saclofen (Sac), a selective antagonist of GABA B receptor (Kerr, et al. (1988) Neurosci. Lett. 92(1):92-96). […]

Experiment [5] has as its system GAD1/2f/f; CD79a/Mb1-Cre HSPCs (LSK). The experiment can be described thus: OP9 co-culture B cell differentiation of GAD1/2-deleted HSPCs with Baclofen in the media. As to conditions: media supplemented with agonist, 12 days. In kind it is cell-based, mouse. From the text:
To genetically block GABA production during B cell differentiation, the B lineage Cre lines CD79a/Mb1-Cre (19) and CD19-Cre were used (Rickert, et al. (1997) Nucl. Acids Res. 25(6):1317-8). These lines were crossed to a GAD1/2-floxed allele (Meng, et al. (2016) Proc. Natl. Acad. Sci. USA 113(13):3645-50) that also carries the Ai14 Lox-Stop-Lox-tdTomato Cre reporter (Madisen, et al. (2010) Nat. Neurosci. 13(1):133-40). At 6-8 weeks of age, BM were harvested and HSPCs (LSK) were sorted from GAD1/2^f/f; CD79a/Mb1-Cre (Cd79a KO) and GAD1/2^f/f-CD19-Cre (Cd19 KO) mice, as well as littermate Cre-negative controls (wild-type). GAD1/2^ff/ excised by Cre recombination will delete the only enzymes that can produce GABA. HSPCs were plated, 3,000-4,000 per well, in OP9 co-culture and were differentiated for 12 days. Cells were harvested from co-cultures for analysis by flow cytometry. The Ai14 Cre reporter was used to confirm that >95% of CD19^+ and/or B220^+ cells were tdTomato^+ as an indication of robust Cre excision in B lineages. Removal of GAD1/2 with CD79a/Mb1-Cre, but not CD19-Cre, led to dramatic reduction of absolute numbers of CD45^+ hematopoietic and B220^+ B lineages. The percentage of B220^+ cells decreased with GAD1/2 deletion by CD79a/Mb1-Cre.

The mark [6] stands for this setting: 10 μM vs vehicle control, spleen of transplanted NSG mice.

Molecules are shown by their SMILES.

For `NCC(O)(CS(=O)(=O)O)c1ccc(Cl)cc1` (stereo not drawn) [2-hydroxy-saclofen, 3-Amino-2-(4-chlorophenyl)-2-hydroxypropyl-sulfonic acid], in experiment [1] (1, 10 or 50 μM, 2 hours ex vivo, 16 weeks post-transplant), the “engraftment (CD45+, CD34+) in NSG mice” value is recorded as “did not significantly increase engraftment at any of the tested doses”.
As for `CCCCC[C@H](O)/C=C/[C@H]1[C@H](O)CC(=O)[C@@H]1C/C=C\CCCC(=O)O` [Prostaglandin E2], the “improvement in long-term engraftment” value in experiment [2] is given as 2- to 4 fold.
Turning to `NCC(CC(=O)O)c1ccc(Cl)cc1` (racemic) [Baclofen, 4-amino-3-(4-chorophenyl)-butanoic acid], the “B cell production (B220+ cell number)” value in experiment [3] (1 μM, day 12) is “reached significance in its stimulation of B cell production”. Besides, the “B cell number across dose curve” value in experiment [3] (0.5, 1.0, 5.0, 10 μM, day 12) is given as “trend of B cell number increase, then decrease”. Further, in experiment [3] (0.5, 1, 5, 10 μM, day 12, flow cytometry), the “percentage of B220+ cells with surface expression of GABBR1+” value is “decreased”. Further, the “in vitro CFUs of CD34+ UCB cells” value in experiment [4] (input cells, after 2-hour treatment) is “did not produce increased colonies”. Also, the “progenitor colonies (CFU) in BM of NSG mice transplanted with treated CD34+ UCB cells, vs controls” value in experiment [4] (output cells, 16 weeks post-transplantation) is recorded as “three-fold”. Further, in experiment [1] (10 μM vs vehicle control, BM, 16 weeks), the “progenitor engraftment CD38+, BM chimerism” value is on record as “significant increases”. Moreover, in experiment [1] (setting [6]), the “CD19+ B-cell reconstitution in spleen” value is on record as “two-fold” and the “overall engraftment in spleen” value is given as “significant increases in overall engraftment”. The “progenitor-specific CD34+ BM engraftment in NSG mice” value in experiment [1] (10 μM, 2 hours ex vivo, 16 weeks post-transplant) was “significant improvement”. For the same compound, the “engraftment of hCD45+ cells in NSG recipients (BM)” value in experiment [1] (10 μM, 2 hours ex vivo, 16 weeks post-transplant, vs vehicle control) was “dramatic enhancement over vehicle control”. Further, the “chimerism, fold higher (long-term engraftment)” value in experiment [1] (UCB CD34+ cells, 2 hour treatment, 10 μM dose, before transplantation) is reported as 2- to 8 fold. Moreover, the “BM chimerism and progenitor numbers in xenograft mouse model” value in experiment [1] (human CD34+ UCB HSPCs, up to 16 weeks) is “sustained increases”. Further, the “rescue of B cell differentiation defect due to GAD1/2 deletion” value in experiment [5] was “partially rescues the defect”.

Source of the values: patent publication US11883436B2, “Method of preparing hematopoietic stem and progenitor cells for transplantation” (THE BOARD OF TRUSTEES OF THE UNIVERSITY OF ILLINOIS, priority 2020, dated 2024).
